Experimental data as given in patent US8044050B2, “Imidazo[1,2-a]azines and their use as pharmaceuticals” (Sanofi-Aventis, priority 2007, dated 2011).

Tested on: eNOS promoter
Assay: Activation of eNOS transcription (eNOS promoter-luciferase reporter gene assay)
Assay type: cell-based
Details: human endothelial cell line stably transfected with eNOS promoter-luciferase construct; 18 h incubation; determined graphically; read-out: EC50 values of transcription induction ratios (TIR)
Procedure: Activation of eNOS transcription was measured as described in detail by Li et al., “Activation of protein kinase C alpha and/or epsilon enhances transcription of the human endothelial nitric oxide synthase gene”, Mol. Pharmacol. 53 (1998) 630. Briefly, a 3.5 kB long fragment 5′ of the starting codon of the eNOS gene was cloned, sequenced and cloned in firefly luciferase expression plasmids to monitor activation of the eNOS promoter by reporter gene activity. A human endothelial cell line stable transfected and expressing this promoter-reporter construct was used for compound testing. Cells were incubated for 18 h with the compounds.
All compounds were dissolved in sterile dimethyl sulfoxide (DMSO). A final concentration of 0.5% DMSO in complete medium was allowed. Induction of reporter gene expression in these cells was measured using a standard luciferase assay system (Promega, Cat. No. E150) according to the manufacturer's instructions. Luciferase induction in cells incubated with compounds were compared to those incubated with solvent alone. The ratio of both activities (transcription induction ratio, TIR) was plotted as a function of compound concentration. […] EC50 values of transcription induction ratios as a function of compound concentration were determined graphically.

Row | EC50 | Structure (SMILES)
1 | < 500 nM | Nc1ccc2nc(-c3ccc(F)cc3)cn2n1 [Example 7, 2-(4-Fluoro-phenyl)-imidazo[1,2-b]pyridazin-6-ylamine]
2 | < 500 nM | Fc1ccc(-c2cn3nc(Cl)ccc3n2)cc1 [Example 8, 6-Chloro-2-(4-fluoro-phenyl)-imidazo[1,2-b]pyridazine]
